Drawing on publication PMC8286840, “Identifying SARS-CoV-2 antiviral compounds by screening for small molecule inhibitors of Nsp3 papain-like protease” (Biochemical Journal, 2021), this text covers remaining activity for 30 compounds.

Structures can show the parent of a compound that is named as a salt. Where two headings read alike, the source gives them in different places. *1 amine or outer side, *2 acyl side, *3 side chain or, on linkers, in order; H or OH if unused. Where a SMILES comes first, the peptide text is derived from it. Side-chain parts run from the residue outwards. [ ]: non-standard residue; d: D form. The star is where a group is joined. Sta = CC(C)C[C@H](N)[C@@H](O)CC(=O)O; Ethylenediamine = C(CN[*:2])N[*:1]; Hyp = O=C(O)[C@@H]1C[C@@H](O)CN1; Phg = N[C@H](C(=O)O)c1ccccc1; Isovaleryl = CC(C)CC(=O)*; CO = O=C([*:1])[*:2]; Bn = c1ccc(C*)cc1

In assay [1] the target is T1, SARS-CoV-2 PLpro (nsp3 1564–1878) (Severe acute respiratory syndrome coronavirus 2, UniProt P0DTD1). In words: biochemical. The conditions noted are these: high concentration screen, read-out: % of control remaining. Further details: FRET-quenched peptide (Pro3) cleavage by PLpro, 10 min pre-incubation, slope over 20 min, normalised to no-compound control.
In assay [2] the target is T1, SARS-CoV-2 PLpro (nsp3 1564–1878). Kind of assay: biochemical. On the set-up: FRET-quenched peptide (Pro3) cleavage by PLpro, 10 min pre-incubation, slope over 20 min, normalised to no-compound control. The conditions noted are these: low concentration screen, read-out: % of control remaining.

For `Cc1[nH]c2ccccc2c1CCNCc1ccc(/C=C/C(=O)NO)cc1` [Panobinostat (LBH589)], the remaining activity at 3.75 µM in assay [1] (Well no.=4832) stood at 96.4%. In assay [2] (Well no.=4832), the remaining activity at 1.25 µM worked out at 94.6%.

Consider `COc1ccnc(C[S+]([O-])c2nc3cc(OC(F)F)ccc3[nH]2)c1OC` (stereo not drawn) [Pantoprazole], for which, in assay [1] (Well no.=2091), the remaining activity at 3.75 µM stood at 99.9%. Also, in assay [2] (Well no.=2091), the remaining activity at 1.25 µM turned out to be 101%.

On to `CC(C)(CO)[C@@H](O)C(=O)NCCC(=O)O` [Pantothenic acid], for which, in assay [1] (Well no.=2288), the remaining activity at 3.75 µM came out at 92.3%. Also, the remaining activity at 1.25 µM in assay [2] (Well no.=2288) is 90.1%.

For `COc1ccc(Cc2nccc3cc(OC)c(OC)cc23)cc1OC` [Papaverine hydrochloride], in assay [1] (Well no.=1144), the remaining activity at 3.75 µM worked out at 98.9%. Further, in assay [2] (Well no.=1144), the remaining activity at 1.25 µM is 98.1%.

With `CCc1cccc2c1c(O)c(C(=O)N(CC)c1ccccc1)c(=O)n2C` [Paquinimod], the remaining activity at 3.75 µM in assay [1] (Well no.=8373) amounted to 92.5%. Besides, the remaining activity at 1.25 µM in assay [2] (Well no.=8373) was found to be 92.6%.

Take `C#CCN(C)Cc1ccccc1` [Pargyline hydrochloride]: the remaining activity at 3.75 µM in assay [1] (Well no.=1445) is 98.9%. For the same compound, the remaining activity at 1.25 µM in assay [2] (Well no.=1445) turned out to be 99.1%.

As for `NC[C@@H]1O[C@H](O[C@H]2[C@@H](O)[C@H](O[C@@H]3[C@@H](O)[C@H](N)C[C@H](N)[C@H]3O[C@H]3O[C@H](CO)[C@@H](O)[C@H](O)[C@H]3N)O[C@@H]2CO)[C@H](N)[C@@H](O)[C@@H]1O` [Paromomycin sulfate], the remaining activity at 3.75 µM in assay [1] (Well no.=1211) was found to be 100%. Further, in assay [2] (Well no.=1211), the remaining activity at 1.25 µM is 99.9%.

For `Fc1ccc([C@@H]2CCNC[C@H]2COc2ccc3c(c2)OCO3)cc1` [Paroxetine], the remaining activity at 3.75 µM in assay [1] (Well no.=2093) was found to be 101%. Further, in assay [2] (Well no.=2093), the remaining activity at 1.25 µM was 103%.

Turning to `NCCCC[C@@H]1NC(=O)[C@@H](Cc2c[nH]c3ccccc23)NC(=O)[C@H](c2ccccc2)NC(=O)[C@@H]2C[C@@H](OC(=O)NCCN)CN2C(=O)[C@H](Cc2ccccc2)NC(=O)[C@H](Cc2ccc(OCc3ccccc3)cc2)NC1=O` [Pasireotide (ditrifluoroacetate)] (cyclo([Hyp]([CO-Ethylenediamine])[Phg][dW]KY(Bn)F)), in assay [1] (Well no.=7988), the remaining activity at 3.75 µM worked out at 101%. In assay [2] (Well no.=7988), the remaining activity at 1.25 µM was found to be 96.1%.

Consider `O=C1C=C2C(=CCOC2O)O1` (stereo not drawn) [Patulin], for which, in assay [1] (Well no.=3543), the remaining activity at 3.75 µM is 103%. Moreover, the remaining activity at 1.25 µM in assay [2] (Well no.=3543) amounted to 105%.

As to `Cc1ccc(Nc2nccc(N(C)c3ccc4c(C)n(C)nc4c3)n2)cc1S(N)(=O)=O` [Pazopanib HCl], the remaining activity at 3.75 µM in assay [1] (Well no.=4613) was 107%. Besides, the remaining activity at 1.25 µM in assay [2] (Well no.=4613) was determined as 110%.

Regarding `Cc1ccc(Nc2nccc(N(C)c3ccc4c(C)n(C)nc4c3)n2)cc1S(N)(=O)=O` [Pazopanib], the remaining activity at 3.75 µM in assay [1] (Well no.=2841) amounted to 103%. Moreover, the remaining activity at 1.25 µM in assay [2] (Well no.=2841) worked out at 103%.

As for `C[C@H]1COc2c(C3(N)CC3)c(F)cc3c(=O)c(C(=O)O)cn1c23` [Pazufloxacin], in assay [1] (Well no.=2095), the remaining activity at 3.75 µM was determined as 98.2%. Moreover, in assay [2] (Well no.=2095), the remaining activity at 1.25 µM stood at 97.7%.

For `OC1c2ccccc2N=C2CCCN21` (stereo not drawn) [Peganole], the remaining activity at 3.75 µM in assay [1] (Well no.=3541) stood at 104%. The remaining activity at 1.25 µM in assay [2] (Well no.=3541) worked out at 95.9%.

For `Nc1nc2[nH]cc(CCc3ccc(C(=O)N[C@@H](CCC(=O)O)C(=O)O)cc3)c2c(=O)[nH]1` [Pemetrexed (Alimta)], in assay [1] (Well no.=4677), the remaining activity at 3.75 µM was 98.7%. Besides, the remaining activity at 1.25 µM in assay [2] (Well no.=4677) is 98.1%.

As to `Nc1nc2[nH]cc(CCc3ccc(C(=O)N[C@@H](CCC(=O)O)C(=O)O)cc3)c2c(=O)[nH]1` [Pemetrexed (disodium hemipenta hydrate)], in assay [1] (Well no.=7604), the remaining activity at 3.75 µM came to 95.6%. Moreover, the remaining activity at 1.25 µM in assay [2] (Well no.=7604) turned out to be 95.1%.

For `Nc1nc2[nH]cc(CCc3ccc(C(=O)N[C@@H](CCC(=O)O)C(=O)O)cc3)c2c(=O)[nH]1` [Pemetrexed (disodium)], the remaining activity at 3.75 µM in assay [1] (Well no.=7500) came to 93.5%. The remaining activity at 1.25 µM in assay [2] (Well no.=7500) was found to be 102%.

On to `Nc1nc2[nH]cc(CCc3ccc(C(=O)N[C@@H](CCC(=O)O)C(=O)O)cc3)c2c(=O)[nH]1` [Pemetrexed Disodium Hydrate], for which the remaining activity at 3.75 µM in assay [1] (Well no.=8732) came to 97.8%. Further, the remaining activity at 1.25 µM in assay [2] (Well no.=8732) worked out at 96.6%.

For the compound `Nc1nc2[nH]cc(CCc3ccc(C(=O)N[C@@H](CCC(=O)O)C(=O)O)cc3)c2c(=O)[nH]1` [Pemetrexed], the remaining activity at 3.75 µM in assay [1] (Well no.=8316) worked out at 101%. The remaining activity at 1.25 µM in assay [2] (Well no.=8316) worked out at 103%.

On to `Cc1cccn2c(=O)c(-c3nnn[nH]3)cnc12` [Pemirolast (potassium)], for which the remaining activity at 3.75 µM in assay [1] (Well no.=7611) worked out at 96.7%. Moreover, the remaining activity at 1.25 µM in assay [2] (Well no.=7611) amounted to 98.6%.

On to `CN1C(C)(C)CCCC1(C)C` [Pempidine tartrate], for which the remaining activity at 3.75 µM in assay [1] (Well no.=1052) is 95%. Further, the remaining activity at 1.25 µM in assay [2] (Well no.=1052) is 94%.

For `Nc1nc(O)c2ncn(CCC(CO)CO)c2n1` [Penciclovir], the results for the remaining activity at 3.75 µM in assay [1] (Well no.=2099) and in assay [1] (Well no.=8002) were 98.9% and 102%, respectively. Further, the remaining activity at 1.25 µM in assay [2] (Well no.=2099) is 97.6%; in assay [2] (Well no.=8002), 105%.

On to `CCCCCCCCCCCCCCC(=O)O` [Pentadecanoic acid], for which the values for the remaining activity at 3.75 µM in assay [1] (Well no.=4588) and in assay [1] (Well no.=7021) were 95.6% and 103%, respectively. Moreover, the remaining activity at 1.25 µM in assay [2] (Well no.=4588) was 95%; in assay [2] (Well no.=7021) it was 110%.

As to `N=C(N)c1ccc(OCCCCCOc2ccc(C(=N)N)cc2)cc1` [Pentamidine HCl], in assay [1] (Well no.=4648), the remaining activity at 3.75 µM worked out at 98.1%. The remaining activity at 1.25 µM in assay [2] (Well no.=4648) was found to be 98.3%.

For `N=C(N)c1ccc(OCCCCCOc2ccc(C(=N)N)cc2)cc1` [Pentamidine isethionate], in assay [1] (Well no.=996), the remaining activity at 3.75 µM stood at 101%. Besides, the remaining activity at 1.25 µM in assay [2] (Well no.=996) was found to be 101%.

For the compound `N=C(N)c1ccc(OCCCCCOc2ccc(C(=N)N)cc2)cc1` [Pentamidine], the remaining activity at 3.75 µM in assay [1] (Well no.=1766) was 99.6%. The remaining activity at 1.25 µM in assay [2] (Well no.=1766) is 97.3%.

With `C[N+]1(CCCCC[N+]2(C)CCCC2)CCCC1` [Pentolinium di[L(+)-tartrate]], the remaining activity at 3.75 µM in assay [1] (Well no.=810) was found to be 96.3%. Moreover, the remaining activity at 1.25 µM in assay [2] (Well no.=810) was determined as 96.7%.

In the case of `CC(=O)CCCCn1c(=O)c2c(ncn2C)n(C)c1=O` [Pentoxifylline], the remaining activity at 3.75 µM in assay [1] (Well no.=1046) stood at 94.8%; in assay [1] (Well no.=2101) it was 100%. Besides, the remaining activity at 1.25 µM in assay [2] (Well no.=1046) came to 92.7%; in assay [2] (Well no.=2101), 101%.

For `C1CCc2nnnn2CC1` [Pentylenetetrazole], the remaining activity at 3.75 µM in assay [1] (Well no.=1054) came to 99.6%. Besides, the remaining activity at 1.25 µM in assay [2] (Well no.=1054) was determined as 97.5%.

As to `CC(C)CC(=O)N[C@H](C(=O)N[C@H](C(=O)N[C@@H](CC(C)C)[C@@H](O)CC(=O)N[C@@H](C)C(=O)N[C@@H](CC(C)C)[C@@H](O)CC(=O)O)C(C)C)C(C)C` [Pepstatin A] (Isovaleryl-VV[Sta]A[Sta]-OH), the remaining activity at 3.75 µM in assay [1] (Well no.=8764) was 92.8%. For the same compound, the remaining activity at 1.25 µM in assay [2] (Well no.=8764) is 91.3%.
